#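 These data come from cells grown in 96-well plates and exposed to compound for 48 hours at five concentrations. TGI marks complete inhibition of growth.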
# Columns and labels:
# Assay in all cases: inhibition of tumour cell growth, NCI panel, 48 h
# OVCAR-5 ovarian = tested on: OVCAR-5 ovarian
# OVCAR-8 ovarian = tested on: OVCAR-8 ovarian
# HOP-92 NSCLC = tested on: HOP-92 NSCLC
# MCF7 breast = tested on: MCF7 breast
# A549 NSCLC = tested on: A549 NSCLC
# HS 578T breast = tested on: HS 578T breast
# SF-268 CNS = tested on: SF-268 CNS
# CCRF-CEM leukemia = tested on: CCRF-CEM leukemia
# BT-549 breast = tested on: BT-549 breast
# MOLT-4 leukemia = tested on: MOLT-4 leukemia
# HCT-116 colon = tested on: HCT-116 colon
# RPMI-8226 leukemia = tested on: RPMI-8226 leukemia
# HCC-2998 colon = tested on: HCC-2998 colon
# SN12C renal = tested on: SN12C renal
# COLO 205 colon = tested on: COLO 205 colon
# DU-145 prostate = tested on: DU-145 prostate
# SK-MEL-2 melanoma = tested on: SK-MEL-2 melanoma
# MDA-MB-435 = tested on: MDA-MB-435
# SNB-75 CNS = tested on: SNB-75 CNS
# UACC-62 melanoma = tested on: UACC-62 melanoma
# U251 CNS = tested on: U251 CNS
# LOX IMVI melanoma = tested on: LOX IMVI melanoma
# SNB-19 CNS = tested on: SNB-19 CNS
# ACHN renal = tested on: ACHN renal
# MDA-MB-231 breast = tested on: MDA-MB-231 breast
# K-562 leukemia = tested on: K-562 leukemia
# OVCAR-4 ovarian = tested on: OVCAR-4 ovarian
# SK-OV-3 ovarian = tested on: SK-OV-3 ovarian
# UACC-257 melanoma = tested on: UACC-257 melanoma
# A498 renal = tested on: A498 renal
# T-47D breast = tested on: T-47D breast
# HOP-62 NSCLC = tested on: HOP-62 NSCLC
# CAKI-1 renal = tested on: CAKI-1 renal
# TK-10 renal = tested on: TK-10 renal
# MDA-N = tested on: MDA-N
# SW-620 colon = tested on: SW-620 colon
# NCI-H522 lung = tested on: NCI-H522 lung
# NCI-H226 lung = tested on: NCI-H226 lung
# PC-3 prostate = tested on: PC-3 prostate
# HT29 colon = tested on: HT29 colon
# SK-MEL-5 melanoma = tested on: SK-MEL-5 melanoma
# UO-31 renal = tested on: UO-31 renal
# 786-0 renal = tested on: 786-0 renal
# SF-539 CNS = tested on: SF-539 CNS
# RXF 393 renal = tested on: RXF 393 renal
# MALME-3M melanoma = tested on: MALME-3M melanoma
# KM12 colon = tested on: KM12 colon
# SK-MEL-28 melanoma = tested on: SK-MEL-28 melanoma
# HCT-15 colon = tested on: HCT-15 colon
# M14 melanoma = tested on: M14 melanoma
# NCI-H23 lung = tested on: NCI-H23 lung
# HL-60(TB) leukemia = tested on: HL-60(TB) leukemia
# IGROV1 ovarian = tested on: IGROV1 ovarian
# OVCAR-3 ovarian = tested on: OVCAR-3 ovarian
# SR leukemia = tested on: SR leukemia
# EKVX NSCLC = tested on: EKVX NSCLC
# NCI/ADR-RES ovarian = tested on: NCI/ADR-RES ovarian
# SF-295 CNS = tested on: SF-295 CNS
# NCI-H460 lung = tested on: NCI-H460 lung
compound,measurement,setting,value
CCC1(c2ccccc2)C(=O)N=C(c2ccccc2)N1CCc1ccccc1 (stereo unspecified),TGI,OVCAR-5 ovarian,> 100 µM
same,TGI,OVCAR-8 ovarian,> 100 µM
same,TGI,HOP-92 NSCLC,> 100 µM
same,TGI,MCF7 breast,> 100 µM
same,TGI,A549 NSCLC,> 100 µM
same,TGI,HS 578T breast,> 100 µM
same,TGI,SF-268 CNS,> 100 µM
same,TGI,CCRF-CEM leukemia,> 100 µM
same,TGI,BT-549 breast,> 100 µM
same,TGI,MOLT-4 leukemia,> 100 µM
same,TGI,HCT-116 colon,> 100 µM
same,TGI,RPMI-8226 leukemia,> 100 µM
same,TGI,HCC-2998 colon,> 100 µM
same,TGI,SN12C renal,> 100 µM
same,TGI,COLO 205 colon,> 100 µM
same,TGI,DU-145 prostate,> 100 µM
same,TGI,SK-MEL-2 melanoma,> 100 µM
same,TGI,MDA-MB-435,> 100 µM
same,TGI,SNB-75 CNS,> 100 µM
same,TGI,UACC-62 melanoma,> 100 µM
same,TGI,U251 CNS,> 100 µM
same,TGI,LOX IMVI melanoma,> 100 µM
same,TGI,SNB-19 CNS,> 100 µM
same,TGI,ACHN renal,> 100 µM
same,TGI,MDA-MB-231 breast,> 100 µM
same,TGI,K-562 leukemia,> 100 µM
same,TGI,OVCAR-4 ovarian,> 100 µM
same,TGI,SK-OV-3 ovarian,> 100 µM
same,TGI,UACC-257 melanoma,> 100 µM
same,TGI,A498 renal,> 100 µM
same,TGI,T-47D breast,> 100 µM
same,TGI,HOP-62 NSCLC,> 100 µM
same,TGI,CAKI-1 renal,> 100 µM
same,TGI,TK-10 renal,> 100 µM
same,TGI,MDA-N,> 100 µM
same,TGI,SW-620 colon,> 100 µM
same,TGI,NCI-H522 lung,> 100 µM
same,TGI,NCI-H226 lung,> 100 µM
same,TGI,PC-3 prostate,> 100 µM
same,TGI,HT29 colon,> 100 µM
same,TGI,SK-MEL-5 melanoma,> 100 µM
same,TGI,UO-31 renal,> 100 µM
same,TGI,786-0 renal,> 100 µM
same,TGI,SF-539 CNS,> 100 µM
same,TGI,RXF 393 renal,> 100 µM
same,TGI,MALME-3M melanoma,> 100 µM
same,TGI,KM12 colon,> 100 µM
same,TGI,SK-MEL-28 melanoma,> 100 µM
same,TGI,HCT-15 colon,> 100 µM
same,TGI,M14 melanoma,> 100 µM
same,TGI,NCI-H23 lung,> 100 µM
same,TGI,HL-60(TB) leukemia,> 100 µM
same,TGI,IGROV1 ovarian,> 100 µM
same,TGI,OVCAR-3 ovarian,> 100 µM
same,TGI,SR leukemia,> 100 µM
same,TGI,EKVX NSCLC,> 100 µM
same,TGI,NCI/ADR-RES ovarian,> 100 µM
same,TGI,SF-295 CNS,> 100 µM
N#Cc1sc2c(c1OC(=O)c1ccccc1)c(=O)n(-c1ccccc1)c(=S)n2-c1ccccc1,TGI,OVCAR-8 ovarian,> 100 µM
same,TGI,MCF7 breast,43.6 µM
same,TGI,A549 NSCLC,> 100 µM
same,TGI,HS 578T breast,52.2 µM
same,TGI,SF-268 CNS,> 100 µM
same,TGI,CCRF-CEM leukemia,61.6 µM
same,TGI,BT-549 breast,> 100 µM
same,TGI,MOLT-4 leukemia,51.8 µM
same,TGI,HCT-116 colon,40.6 µM
same,TGI,RPMI-8226 leukemia,66.5 µM
same,TGI,HCC-2998 colon,68.9 µM
same,TGI,SN12C renal,77.7 µM
same,TGI,COLO 205 colon,34.2 µM
same,TGI,DU-145 prostate,> 100 µM
same,TGI,SK-MEL-2 melanoma,80.3 µM
same,TGI,MDA-MB-435,67.9 µM
same,TGI,UACC-62 melanoma,40.9 µM
same,TGI,U251 CNS,53.3 µM
same,TGI,LOX IMVI melanoma,51.7 µM
same,TGI,SNB-19 CNS,> 100 µM
same,TGI,MDA-MB-231 breast,59.2 µM
same,TGI,K-562 leukemia,> 100 µM
same,TGI,OVCAR-4 ovarian,80.7 µM
same,TGI,SK-OV-3 ovarian,> 100 µM
same,TGI,UACC-257 melanoma,> 100 µM
same,TGI,T-47D breast,46.9 µM
same,TGI,HOP-62 NSCLC,46.5 µM
same,TGI,CAKI-1 renal,> 100 µM
same,TGI,TK-10 renal,> 100 µM
same,TGI,MDA-N,65.1 µM
same,TGI,SW-620 colon,> 100 µM
same,TGI,NCI-H460 lung,> 100 µM
same,TGI,NCI-H522 lung,29.8 µM
same,TGI,NCI-H226 lung,40.8 µM
same,TGI,PC-3 prostate,66.6 µM
same,TGI,HT29 colon,> 100 µM
same,TGI,SK-MEL-5 melanoma,28.5 µM
same,TGI,UO-31 renal,35.6 µM
same,TGI,786-0 renal,85.1 µM
same,TGI,SF-539 CNS,47.8 µM
same,TGI,RXF 393 renal,32.7 µM
same,TGI,MALME-3M melanoma,50 µM
same,TGI,KM12 colon,43.5 µM
same,TGI,SK-MEL-28 melanoma,72.4 µM
same,TGI,HCT-15 colon,39.4 µM
same,TGI,M14 melanoma,40.6 µM
same,TGI,NCI-H23 lung,58.9 µM
same,TGI,HL-60(TB) leukemia,61.4 µM
same,TGI,IGROV1 ovarian,45.7 µM
same,TGI,OVCAR-3 ovarian,> 100 µM
same,TGI,SR leukemia,> 100 µM
same,TGI,EKVX NSCLC,68.6 µM
same,TGI,NCI/ADR-RES ovarian,49.3 µM
same,TGI,SF-295 CNS,70.3 µM
CC(C)(C)OC(=O)N/N=C(/N)Cc1ccc(Cl)cc1,TGI,OVCAR-5 ovarian,> 100 µM
same,TGI,OVCAR-8 ovarian,> 100 µM
same,TGI,MCF7 breast,> 100 µM
same,TGI,A549 NSCLC,> 100 µM
same,TGI,HS 578T breast,> 100 µM
same,TGI,SF-268 CNS,> 100 µM
same,TGI,CCRF-CEM leukemia,> 100 µM
same,TGI,BT-549 breast,> 100 µM
same,TGI,MOLT-4 leukemia,> 100 µM
same,TGI,HCT-116 colon,> 100 µM
same,TGI,HCC-2998 colon,> 100 µM
same,TGI,SN12C renal,> 100 µM
same,TGI,COLO 205 colon,> 100 µM
same,TGI,DU-145 prostate,> 100 µM
same,TGI,SK-MEL-2 melanoma,> 100 µM
same,TGI,MDA-MB-435,> 100 µM
same,TGI,SNB-75 CNS,> 100 µM
same,TGI,UACC-62 melanoma,> 100 µM
same,TGI,U251 CNS,> 100 µM
same,TGI,LOX IMVI melanoma,> 100 µM
same,TGI,SNB-19 CNS,> 100 µM
same,TGI,ACHN renal,> 100 µM
same,TGI,MDA-MB-231 breast,> 100 µM
same,TGI,K-562 leukemia,> 100 µM
same,TGI,OVCAR-4 ovarian,> 100 µM
same,TGI,SK-OV-3 ovarian,> 100 µM
same,TGI,UACC-257 melanoma,> 100 µM
same,TGI,A498 renal,> 100 µM
same,TGI,T-47D breast,> 100 µM
same,TGI,HOP-62 NSCLC,> 100 µM
same,TGI,CAKI-1 renal,> 100 µM
same,TGI,TK-10 renal,> 100 µM
same,TGI,MDA-N,> 100 µM
same,TGI,SW-620 colon,> 100 µM
same,TGI,NCI-H460 lung,> 100 µM
same,TGI,NCI-H522 lung,> 100 µM
same,TGI,NCI-H226 lung,> 100 µM
same,TGI,PC-3 prostate,> 100 µM
same,TGI,HT29 colon,> 100 µM
same,TGI,SK-MEL-5 melanoma,> 100 µM
same,TGI,UO-31 renal,> 100 µM
same,TGI,786-0 renal,> 100 µM
same,TGI,RXF 393 renal,> 100 µM
same,TGI,MALME-3M melanoma,> 100 µM
same,TGI,KM12 colon,> 100 µM
same,TGI,SK-MEL-28 melanoma,> 100 µM
same,TGI,HCT-15 colon,> 100 µM
same,TGI,M14 melanoma,> 100 µM
same,TGI,IGROV1 ovarian,> 100 µM
same,TGI,OVCAR-3 ovarian,> 100 µM
same,TGI,SR leukemia,> 100 µM
same,TGI,EKVX NSCLC,> 100 µM
same,TGI,NCI/ADR-RES ovarian,> 100 µM
same,TGI,SF-295 CNS,> 100 µM
